EP0677293A1, “PHARMACEUTICAL USE OF TERPYRIDINE DERIVATIVE” (priority 1992, dated 1994)
Read-outs that look alike come from different tables or passages of the source.

Tests used:
[1] = system: Astroglial cells derived from the mouse forebrain; experiment: Synthesis-stimulating activity on NGF (NGF level in culture medium by enzyme immunoassay); type: cell-based; details: ratio to DMSO control = 1.0
Procedure: The activity of accelerating secretion of NGF was evaluated by the following method.
Each compound shown in Table 1 was dissolved in dimethylsulfoxide (DMSO) to adjust the concentration in the range of 2 mg/ml to 10 mg/ml.
Astroglial cells derived from the mouse forebrain (cells that synthesize and secrete NGF)
Astroglial cells obtained from the mouse forebrain were cultured into 8 x 10⁵ cells/ml in Dulbecco's modified Eagle's medium obtained from Gibco, glucose-rich, containing 20% fetal calf serum, 100 units/ml of penicillin and 100 µg/ml of streptomycin. A 0.1 ml/well aliquot was inoculated on a 96-well plate obtained from Falcon and having an area of 0.32 cm² per well and cultured at 37°C in an atmosphere of 5% CO₂. The culture medium was removed 72 hours later and instead, a 0.1 ml/well aliquot of fresh Dulbecco's modified Eagle's medium containing 0.5% bovine albumin powders obtained from Armour, 100 units/ml of penicillin and 100 µg/ml of streptomycin was supplemented to the system followed by culturing at 37°C in 5% CO₂. The above medium containing the compound each having various concentrations was exchanged 72 hours later. For the purpose of comparison, the medium which contains only DMSO was also prepared (control).
The synthesis-stimulating activity on NGF by the compound of the present invention is shown in terms of a ratio when the NGF level in the control containing only DMSO was made 1.0.

[2] = system: both common carotid artery-occlusion model Mongolian gerbils; experiment: Test on delayed neuronal death induced by cerebral ischemia (3 min occlusion of both common carotid arteries, histology of hippocampus after 7 days); type: in vivo; details: for Incidence Frequency of Neuronal Damage -: score 0 (-), normal neurons; for Incidence Frequency of Neuronal Damage +: score 1 (+), a few neurons damaged; for Incidence Frequency of Neuronal Damage ++: score 2 (++), many neurons damaged; for Incidence Frequency of Neuronal Damage +++: score 3 (+++), majority of neurons damaged
Procedure: Neuronal damages induced by cerebral ischemia was evaluated in the both common carotid artery-occlusion model Mongolian gerbils. Male Monglian gerbils, supplied by Shin Nihon Dobutsu Co., Ltd., Saitama, Japan and weighing 60 to 90 g. The gerbils were anesthetized lightly with ether and placed in the supine position. After local infiltration of xylocaine, both common carotid arteries were exposed through a ventral midline incision. The arteries were then clamped with aneurysm clips for 3 minutes. Thereafter the clips were removed and the skin was sutured. Sham operated animals were treated in the same manner, except that clamping was not done. The animals were anesthetized with ether 7 days after the bilateral common carotid arteries had been occluded for 3 minutes, and the brains were perfused with a 10% buffered formalin solution given through the left cardiac ventricle. The hippocampal region was cut coronally into 3- to 4-mm thick slices, embedded in paraffin and processed using the step section technique. The preparations were stained with hematoxylin and eosin. Ischemic neuronal damage was graded on 4 levels from scores 0 to 3: score 0 (-), normal neurons; score 1 (+), a few neurons damaged (as few as one neuron damaged); score 2 (++), many neurons damaged; and score 3 (+++), majority of neurons damaged. Compounds to be tested were suspended in gum arabic or dissolved in physiological saline, which was intraperitoneally given at determined times in doses of 10 mg/kg to 100 mg/kg, before and after the induced ischemia.

[3] = system: Cerebral cortical neuronal cells from an 18-day-old rat embryo; experiment: Test on neurotrophic activity (living cells counted by fluorescein diacetate fluorescence, with or without hypoxic load); type: cell-based
Procedure: The neurotrophic activity was determined by the following method. Each compound was dissolved in DMSO to adjust the concentration in the range of 2 mg/ml to 10 mg/ml. Cerebral cortical neuronal cells from an 18-day-old rat embryo […] After 24 hours of incubation, the culture medium was removed and a 0.5 ml/well aliquot of a serum-free fresh DF medium containing the respective compounds having various concentrations, 5 µg/ml of transferrin, 5 µg/ml of insulin and 20 pmoles/ml of progesterone was supplemented to the system. For the purpose of comparison, the medium containing only DMSO was added was also prepared. At this stage, the two same plates were used. After 72 hours of incubation in various medium, hypoxia was loaded on one plate by reducing the concentration of oxygen to the minimum concentration of 1% using a N₂-O₂-CO₂ incubator (manufactured by Tabai, Model BNP-100) and culturing for 4 hours under the conditions. Another plate was cultured in an atmosphere of 5% CO₂ and 95% air, without hypoxic load. After the incubation was continued for further 48 hours, living cells were counted. The culture medium was removed and fluorescein diacetate (FDA) reagent was reacted. After washing with phosphate buffer, pH 7.4, the fluorescent intensity (E x 485/Em 530) was measured by CytoFlour^TM 2300, manufactured by Millipore.

[4] = dose 10, intraperitoneally, 30 mins after ischemia
[5] = dose 10, intraperitoneally, 1 hour after ischemia
[6] = dose 10, intraperitoneally, immediately after ischemia
[7] = dose 100 mg/kg, intraperitoneally, immediately after ischemia
[8] = no hypoxic load, ratio of fluorescent intensity to DMSO control = 1.0, read-out: Neurotrophic Activity No Hypoxic Load
[9] = 4 h, hypoxic load (1% oxygen, 4 hours), ratio of fluorescent intensity to DMSO control = 1.0, read-out: Neurotrophic Activity Hypoxic Load
[10] = dose 100 mg/kg, intraperitoneally, before 30 mins

With `Cc1ccc(-c2cc(-c3ccccn3)nc(-c3ccccn3)c2)cc1.Cl.Cl.Cl` [Compound 6, 4'-(4-Methylphenyl)-2,2':6',2''-terpyridin trihydrochloride] the “Synthesis-Stimulating Activity on NGF” value ([1]; 100 µg/ml, 24 hours) was 5.0, the fold induction at 10 µg/mL ([1]; Mus musculus, 24 h) was 2 and the fold induction at 30 µg/mL ([1]; Mus musculus, 24 h) was 3.3. The “damages of the hippocampal CAl neurons” value ([2]; intraperitoneally given 30 minutes after or an hour after the ischemia had been induced) was “prevented damages of the hippocampal CAl neurons”, the Incidence Frequency of Neuronal Damage - [2, 4] was 25% and the Incidence Frequency of Neuronal Damage - [2, 5] was 0%. The Incidence Frequency of Neuronal Damage - [2, 6] was 0%, the Incidence Frequency of Neuronal Damage + [2, 4] was 37.5% and the Incidence Frequency of Neuronal Damage + [2, 5] was 50%. The Incidence Frequency of Neuronal Damage + [2, 6] was 75%, the Incidence Frequency of Neuronal Damage ++ [2, 4] was 12.5% and the Incidence Frequency of Neuronal Damage ++ [2, 5] was 25%. For the same molecule, the Incidence Frequency of Neuronal Damage ++ [2, 6] was 0%, the Incidence Frequency of Neuronal Damage +++ [2, 4] was 25% and the Incidence Frequency of Neuronal Damage +++ [2, 5] was 25%. The Incidence Frequency of Neuronal Damage +++ [2, 6] was 25%.
`Cc1ccc(-c2cc(-c3ccccn3)nc(-c3ccccn3)c2)cc1` [Compound 5, 4'-(4-Methylphenyl)-2,2':6',2''-terpyridine] was tested, and the fold induction at 20 µg/mL ([1]; Mus musculus, 24 h, 20 µg/ml) was 10.1, the fold induction at 100 µg/mL ([1]; Mus musculus, 24 h, 100 µg/ml) was 9.8 and the Incidence Frequency of Neuronal Damage - [2, 7] was 25%. It also gave an Incidence Frequency of Neuronal Damage + [2, 7] of 50%, an Incidence Frequency of Neuronal Damage ++ [2, 7] of 0% and an Incidence Frequency of Neuronal Damage +++ [2, 7] of 25%.
`CCCCCCCCCCCCCCCCC(CCCCCCCCCCCCCCCC)c1cc[n+](Cc2ccc(-c3cc(-c4ccccn4)nc(-c4ccccn4)c3)cc2)cc1.[Br-]` [Compound 29, 4-(1-Hexadecylheptadecyl)-1-[4-(2,2':6',2''-terpyridin-4'-yl)phenylmethyl]pyridinium bromide] showed a fold induction at 3 µg/mL ([1]; Mus musculus, 24 h, 3 µg/ml) of 1, a fold induction at 10 µg/mL ([1]; Mus musculus, 24 h) of 2 and a fold induction at 30 µg/mL ([1]; Mus musculus, 24 h) of 7.6. It also gave a fold induction at 100 µg/mL ([1]; Mus musculus, 24 h, 100 µg/ml) of 13, a viability at 2 µg/mL [3, 8] of 610% and a viability at 10 µg/mL [3, 8] of 570%. The viability at 2 µg/mL [3, 9] was 500%, the viability at 10 µg/mL [3, 9] was 300% and the Incidence Frequency of Neuronal Damage - [2, 10] was 42.9%. The Incidence Frequency of Neuronal Damage + [2, 10] was 14.3%, the Incidence Frequency of Neuronal Damage ++ [2, 10] was 14.3% and the Incidence Frequency of Neuronal Damage +++ [2, 10] was 28.6%.
For `c1ccc(-c2cc(-c3ccncc3)cc(-c3ccccn3)n2)nc1` [Compound 30, 4'-(4-Pyridyl)-2,2':6',2''-terpyridine], the fold induction at 2 µg/mL ([1]; Mus musculus, 24 h, 2 µg/ml, 24 hours, read-out: Synthesis-Stimulating Activity on NGF) was 1, the fold induction at 10 µg/mL ([1]; Mus musculus, 24 h) was 1.2 and the fold induction at 50 µg/mL ([1]; Mus musculus, 24 h, 50 µg/ml, 24 hours, read-out: Synthesis-Stimulating Activity on NGF) was 1.2. For the same molecule, the viability at 2 µg/mL [3, 8] was 420%, the viability at 10 µg/mL [3, 8] was 120% and the viability at 2 µg/mL [3, 9] was 530%. It also gave a viability at 10 µg/mL [3, 9] of 130%, an Incidence Frequency of Neuronal Damage - [2, 7] of 100% and an Incidence Frequency of Neuronal Damage + [2, 7] of 0%. It also gave an Incidence Frequency of Neuronal Damage ++ [2, 7] of 0% and an Incidence Frequency of Neuronal Damage +++ [2, 7] of 0%.
